Columns and labels:
VEGFR2 = VEGFR2 (Homo sapiens, UniProt P35968); assay: Z′-LYTE kinase inhibition assay
FGFR1 = FGFR1 (Homo sapiens, UniProt P11362); assay: Z′-LYTE kinase inhibition assay
PDGFRβ = PDGFRβ (Homo sapiens, UniProt P09619); assay: Z′-LYTE kinase inhibition assay
[1] = tested on: A549 lung cancer xenograft; assay: A549 lung cancer subcutaneous xenograft model; assay type: in vivo, Balb/c nude mice
[2] = tested on: NCI-H520 lung cancer xenograft; assay: NCI-H520 lung cancer subcutaneous xenograft model; assay type: in vivo, Balb/c nude mice
HUVECs = assay: VEGF-induced HUVECs proliferation; assay type: cell-based; conditions: Homo sapiens, HUVEC, 72 h, read-out: IC50 HUVECs
HBVPs = assay: PDGF-BB-induced HBVPs proliferation; assay type: cell-based; conditions: Homo sapiens, 48 h, read-out: IC50 HBVPs

FGFR1, sequence (P11362 22-822): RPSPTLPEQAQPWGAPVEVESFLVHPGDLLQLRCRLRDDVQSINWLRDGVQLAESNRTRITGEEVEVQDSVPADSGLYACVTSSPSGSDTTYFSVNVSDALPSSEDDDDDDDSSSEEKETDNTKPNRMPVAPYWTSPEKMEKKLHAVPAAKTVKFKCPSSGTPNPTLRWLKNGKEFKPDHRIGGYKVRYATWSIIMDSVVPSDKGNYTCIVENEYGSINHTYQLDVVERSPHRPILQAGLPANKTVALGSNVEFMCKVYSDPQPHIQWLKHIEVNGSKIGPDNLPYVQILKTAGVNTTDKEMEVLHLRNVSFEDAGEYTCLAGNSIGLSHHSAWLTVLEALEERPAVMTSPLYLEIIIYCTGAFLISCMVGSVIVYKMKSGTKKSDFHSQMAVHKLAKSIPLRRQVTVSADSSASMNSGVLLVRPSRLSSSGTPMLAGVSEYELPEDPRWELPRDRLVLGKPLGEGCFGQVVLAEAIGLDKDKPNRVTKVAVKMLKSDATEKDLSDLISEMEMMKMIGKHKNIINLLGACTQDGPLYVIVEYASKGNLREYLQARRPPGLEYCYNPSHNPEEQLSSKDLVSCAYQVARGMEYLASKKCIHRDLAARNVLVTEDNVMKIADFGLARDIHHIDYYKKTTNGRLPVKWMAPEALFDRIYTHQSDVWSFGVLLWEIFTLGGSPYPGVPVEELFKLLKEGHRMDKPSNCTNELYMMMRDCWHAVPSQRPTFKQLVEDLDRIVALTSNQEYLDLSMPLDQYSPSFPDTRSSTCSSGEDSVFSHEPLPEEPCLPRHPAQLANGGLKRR
PDGFRβ, sequence (P09619 33-1106): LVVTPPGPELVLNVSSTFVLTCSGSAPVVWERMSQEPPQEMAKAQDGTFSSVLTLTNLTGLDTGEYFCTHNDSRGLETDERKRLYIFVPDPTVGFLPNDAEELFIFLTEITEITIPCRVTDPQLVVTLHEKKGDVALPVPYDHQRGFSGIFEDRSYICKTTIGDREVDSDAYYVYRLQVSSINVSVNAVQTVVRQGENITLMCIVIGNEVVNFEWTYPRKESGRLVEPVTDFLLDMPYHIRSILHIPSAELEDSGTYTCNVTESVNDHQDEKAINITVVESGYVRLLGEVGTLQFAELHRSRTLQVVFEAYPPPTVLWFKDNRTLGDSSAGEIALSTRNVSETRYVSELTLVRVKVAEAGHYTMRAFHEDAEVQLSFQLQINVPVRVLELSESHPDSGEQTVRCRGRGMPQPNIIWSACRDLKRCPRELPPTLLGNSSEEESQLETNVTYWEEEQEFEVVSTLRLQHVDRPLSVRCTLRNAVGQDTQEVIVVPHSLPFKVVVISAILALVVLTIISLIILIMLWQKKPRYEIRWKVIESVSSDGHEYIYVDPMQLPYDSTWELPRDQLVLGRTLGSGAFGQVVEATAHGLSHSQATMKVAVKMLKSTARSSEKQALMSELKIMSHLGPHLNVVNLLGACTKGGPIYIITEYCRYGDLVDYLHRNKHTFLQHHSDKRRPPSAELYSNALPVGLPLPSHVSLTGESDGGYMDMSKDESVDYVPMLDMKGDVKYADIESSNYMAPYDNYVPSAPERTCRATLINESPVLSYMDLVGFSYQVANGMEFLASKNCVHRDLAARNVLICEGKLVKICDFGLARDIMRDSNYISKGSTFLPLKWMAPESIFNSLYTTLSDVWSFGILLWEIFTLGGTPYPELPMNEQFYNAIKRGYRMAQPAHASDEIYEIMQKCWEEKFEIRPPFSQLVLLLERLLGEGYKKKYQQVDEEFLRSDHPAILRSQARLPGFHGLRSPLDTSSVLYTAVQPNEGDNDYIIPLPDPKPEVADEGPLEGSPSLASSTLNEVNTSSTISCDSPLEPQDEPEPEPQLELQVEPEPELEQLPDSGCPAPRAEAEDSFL
VEGFR2, sequence (P35968 20-1356): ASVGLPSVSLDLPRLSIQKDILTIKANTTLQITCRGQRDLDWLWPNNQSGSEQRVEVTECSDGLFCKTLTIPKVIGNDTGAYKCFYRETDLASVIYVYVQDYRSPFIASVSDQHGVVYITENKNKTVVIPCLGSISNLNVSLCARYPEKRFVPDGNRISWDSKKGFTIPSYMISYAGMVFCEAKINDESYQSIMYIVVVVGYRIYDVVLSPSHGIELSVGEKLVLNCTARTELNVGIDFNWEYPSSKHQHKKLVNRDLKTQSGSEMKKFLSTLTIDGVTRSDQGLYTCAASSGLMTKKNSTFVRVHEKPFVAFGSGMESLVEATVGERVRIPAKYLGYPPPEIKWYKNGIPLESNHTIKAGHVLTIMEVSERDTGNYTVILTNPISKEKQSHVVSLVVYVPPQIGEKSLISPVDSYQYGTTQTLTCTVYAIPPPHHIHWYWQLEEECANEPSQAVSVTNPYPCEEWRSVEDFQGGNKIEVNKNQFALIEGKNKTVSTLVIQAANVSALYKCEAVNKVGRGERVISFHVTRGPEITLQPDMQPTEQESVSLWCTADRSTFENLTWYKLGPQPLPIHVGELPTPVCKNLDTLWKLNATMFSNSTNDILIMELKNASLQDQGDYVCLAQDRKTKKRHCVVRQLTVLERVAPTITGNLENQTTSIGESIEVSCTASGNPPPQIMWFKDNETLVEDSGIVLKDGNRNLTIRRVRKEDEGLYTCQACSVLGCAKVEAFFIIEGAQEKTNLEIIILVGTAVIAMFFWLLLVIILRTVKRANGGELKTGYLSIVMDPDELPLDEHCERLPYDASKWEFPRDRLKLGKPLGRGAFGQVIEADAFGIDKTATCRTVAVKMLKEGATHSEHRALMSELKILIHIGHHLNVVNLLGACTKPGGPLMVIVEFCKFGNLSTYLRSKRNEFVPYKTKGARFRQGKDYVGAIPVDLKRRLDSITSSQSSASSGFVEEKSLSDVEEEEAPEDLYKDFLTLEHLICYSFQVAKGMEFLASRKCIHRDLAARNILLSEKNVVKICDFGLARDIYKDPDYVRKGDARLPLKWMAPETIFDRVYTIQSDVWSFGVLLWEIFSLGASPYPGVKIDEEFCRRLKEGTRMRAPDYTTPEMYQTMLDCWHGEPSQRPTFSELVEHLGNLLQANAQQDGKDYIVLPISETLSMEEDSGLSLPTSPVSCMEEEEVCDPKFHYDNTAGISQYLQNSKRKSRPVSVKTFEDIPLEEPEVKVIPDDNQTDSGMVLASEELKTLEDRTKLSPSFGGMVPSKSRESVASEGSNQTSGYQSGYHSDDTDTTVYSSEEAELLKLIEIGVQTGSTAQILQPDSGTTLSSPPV

Row | IC50 (VEGFR2) [nM] | IC50 (FGFR1) [nM] | IC50 (PDGFRβ) [nM] | Compound | T/C ([1]; 100 mg/kg p.o. QD, Day 21) [%] | TGI ([1]; 100 mg/kg p.o. QD, Day 21) [%] | Tumor volume at Day 21 ([1]; 100 mg/kg p.o. QD, mean ± SEM) [mm^3] | area of CD31 (tumor micro-vessel density, IHC) ([1]; 100 mg/kg, mean ± SEM, n = 3, control 3.38 ± 0.49) | T/C ([2]; 100 mg/kg p.o. QD, Day 21) [%] | TGI ([2]; 100 mg/kg p.o. QD, Day 21) [%] | Tumor volume at Day 21 ([2]; 100 mg/kg p.o. QD, mean ± SEM) [mm^3] | area of CD31 (tumor micro-vessel density, IHC) ([2]; 100 mg/kg, mean ± SEM, n = 3, control 4.96 ± 0.62) | IC50 (HUVECs) [nM] | IC50 (HBVPs) [nM]
1 | 227 | 777 | 410 | O=C1NCOc2cc3nccc(Oc4ccc(NC(=S)NC5CC5)c(Cl)c4)c3cc21 [B3] | – | – | – | – | – | – | – | – | – | –
2 | 32.7 | 436 | 77.2 | COc1cc2nccc(Oc3ccc(NC(N)=S)c(Cl)c3)c2cc1C(N)=O [C1] | – | – | – | – | – | – | – | – | – | –
3 | – | – | – | COC(=O)c1ccc2c(c1)NC(=O)/C2=C(\Nc1ccc(N(C)C(=O)CN2CCN(C)CC2)cc1)c1ccccc1 [Nintedanib, reference compound] | 26 | 80 | 391 ± 43 | 1.05 ± 0.33 | 45 | 62 | 585 ± 101 | 1.99 ± 0.04 | 41 | 1670
